From patent US12234230B2, “Substituted benzyl-triazole compounds for Cbl-b inhibition, and further uses thereof” (Nurix Therapeutics, Inc., priority 2019, dated 2025)

What was measured:
[1] = biological target: Cbl-b (Homo sapiens (Human), UniProt Q13191); assay: Cbl-b displacement assay (Cbl-b inhibition assay), Biological Example 1; format: binding; details: 0.125 nM Cbl-b final concentration (Low); read-out: Cbl-b activity IC50 (Low)
Procedure: The ability of candidate compounds to displace a known inhibitor and thereby inhibit Cbl-b activity was measured by monitoring the interaction of Cbl-b with a fluorophore-labeled probe in the presence of the candidate compound.
Following the one hour incubation, the plates were read for TR-FRET signal at 520/620 nm using an Envision plate reader (Perkin Elmer).

[2] = test system: primary human total T-cells; assay: Primary human total T-cell activation (IL-2 secretion, CD25 surface staining), Biological Example 2; details: fold change over baseline; for CD25 staining CD3/CD28 0.3 μM / IL-2 secretion CD3/CD28 0.3 μM: 0.3 μM inhibitor; for CD25 staining CD3/CD28 0.3 μM / IL-2 secretion CD3/CD28 0.3 μM / IL-2 secretion CD3/CD28 1 μM / CD25 staining CD3/CD28 1 μM: anti-CD3 and anti-CD28 co-stimulation; for IL-2 secretion CD3/CD28 1 μM / CD25 staining CD3 1 μM / IL-2 secretion CD3 1 μM / CD25 staining CD3/CD28 1 μM: 1 μM inhibitor; for CD25 staining CD3 1 μM / IL-2 secretion CD3 1 μM / CD25 staining CD3 3 μM / IL-2 secretion CD3 3 μM: anti-CD3 stimulation alone; for CD25 staining CD3 3 μM / IL-2 secretion CD3 3 μM: 3 μM inhibitor
Procedure: Peripheral blood mononuclear cells (PBMC) were obtained either: 1) by using Ficoll-Paque™ (GE Healthcare) for separation of peripheral blood hematopoietic cells from buffy coats of healthy human donors; or 2) directly from LeukoPak donations. […] The cells were rested overnight at 37° C. 5% CO2. The Cbl-inhibitor was added to 1×10^5 cells per well and the plate was incubated for one hour at 37° C. in 5% CO2 at the concentrations indicated (Table 3) with a final DMSO concentration of <0.1%. For samples stimulated with anti-CD3 antibody and anti-CD28 antibody (anti-CD3/anti-CD28), the Cbl-b inhibitor concentrations tested were 1 μM, and 0.3 μM. For samples stimulated with anti-CD3 antibody alone (anti-CD3), the Cbl-b inhibitor concentrations tested were 3 μM, and 1 μM. […] To prepare plates with plate bound anti-CD3 antibody (OKT3), 96-well round bottom tissue culture plates were coated with 100 μL of anti-CD3 antibody (OKT3) at 10 μg/mL for 4 hours at 37° C. 5% CO2 in phosphate buffered saline (PBS). […] Cells were stimulated for 48 hours prior to harvesting the cell free supernatant and staining the cell population for surface marker assessment by flow cytometry. Supernatants were analyzed for cytokine secretion, including IL-2 by ELISA (R&D Systems, Peprotech or Life Technologies) or Luminex multiplex kits (Procarta Life Technologies) following the manufacturer's protocol. Cells were stained with anti-CD25 antibody (BD Biosciences) to assess levels of surface marker of activation.
Readouts were reported as fold change over baseline. Baseline for this study was the measurement obtained from total human T-cells stimulated with anti-CD3 antibody and with soluble anti-CD28 antibody, wherein the cells were not incubated with a Cbl-b inhibitor (Table 3).

Cbl-b, sequence (Q13191 36-427): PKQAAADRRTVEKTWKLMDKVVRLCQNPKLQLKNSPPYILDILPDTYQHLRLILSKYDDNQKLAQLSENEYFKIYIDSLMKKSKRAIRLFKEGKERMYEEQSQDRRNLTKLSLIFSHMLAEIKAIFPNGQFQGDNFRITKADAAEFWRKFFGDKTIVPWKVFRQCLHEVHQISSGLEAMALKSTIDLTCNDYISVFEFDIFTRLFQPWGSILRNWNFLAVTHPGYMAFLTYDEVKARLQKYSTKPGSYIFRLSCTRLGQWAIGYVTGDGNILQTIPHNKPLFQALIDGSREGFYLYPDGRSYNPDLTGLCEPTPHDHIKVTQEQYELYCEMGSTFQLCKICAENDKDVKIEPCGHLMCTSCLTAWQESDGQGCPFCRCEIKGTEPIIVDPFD

Row | Compound | IC50 [1] | CD25 staining CD3/CD28 0.3 μM [2] | IL-2 secretion CD3/CD28 0.3 μM [2] | IL-2 secretion CD3/CD28 1 μM [2] | CD25 staining CD3 1 μM [2] | IL-2 secretion CD3 1 μM [2] | CD25 staining CD3 3 μM [2] | IL-2 secretion CD3 3 μM [2] | CD25 staining CD3/CD28 1 μM [2]
1 | CO[C@H]1C[C@@](c2cccc(N3Cc4c(cc(CN5CCC(F)(F)[C@H](C)C5)cc4C(F)(F)F)C3=O)c2)(c2nncn2C)C1 [Compound 33, 6-(((R)-4,4-difluoro-3-methylpiperidin-1-yl)methyl)-2-(3-((1s,3S)-3-methoxy-1-(4-methyl-4H-1,2,4-triazol-3-yl)cyclobutyl)phenyl)-4-(trifluoromethyl)isoindolin-1-one] | 5 to 20 nM | B (B indicates 1.24-1.39 fold) | C (C indicates <20 fold) | B (B indicates 20-35 fold) | A (A indicates >2.5 fold) | A (A indicates >1.1 fold) | A (A indicates >2.5 fold) | A (A indicates >1.1 fold) | 
2 | C[C@@H]1CN(Cc2cc3c(c(C(F)(F)F)c2)CN(c2cccc([C@]4(c5nncn5C)C[C@H](O)C4)c2)C3=O)CCC1(F)F [Compound 34, 6-(((R)-4,4-difluoro-3-methylpiperidin-1-yl)methyl)-2-(3-(trans-3-hydroxy-1-(4-methyl-4H-1,2,4-triazol-3-yl)cyclobutyl)phenyl)-4-(trifluoromethyl)isoindolin-1-one] | 5 to 20 nM | B (B indicates 1.24-1.39 fold) | C (C indicates <20 fold) | A (A indicates >35 fold) | B (B indicates 1.5-2.5 fold) | A (A indicates >1.1 fold) | B (B indicates 1.5-2.5 fold) | A (A indicates >1.1 fold) | B (B indicates 1.24-1.39 fold)
3 | C[C@H]1CCCN(Cc2cc3c(c(C(F)(F)F)c2)CN(c2cccc([C@]4(c5nncn5C)C[C@H](O)C4)c2)C3=O)C1 [Compound 35, 2-(3-((1r,3S)-3-hydroxy-1-(4-methyl-4H-1,2,4-triazol-3-yl)cyclobutyl)phenyl)-6-(((S)-3-methylpiperidin-1-yl)methyl)-4-(trifluoromethyl)isoindolin-1-one] | < 5 nM | B (B indicates 1.24-1.39 fold) | B (B indicates 20-35 fold) | B (B indicates 20-35 fold) | A (A indicates >2.5 fold) | B (B indicates 0.70-1.1 fold) | A (A indicates >2.5 fold) | B (B indicates 0.70-1.1 fold) | B (B indicates 1.24-1.39 fold)
4 | CO[C@H]1C[C@](c2cccc(N3Cc4c(cc(CN5CCC(F)(F)[C@H](C)C5)cc4C(F)(F)F)C3=O)c2)(c2nncn2C)C1 [Compound 36, 6-(((R)-4,4-difluoro-3-methylpiperidin-1-yl)methyl)-2-(3-(trans-3-methoxy-1-(4-methyl-4H-1,2,4-triazol-3-yl)cyclobutyl)phenyl)-4-(trifluoromethyl)isoindolin-1-one] | < 5 nM |  | C (C indicates <20 fold) | C (C indicates <20 fold) | C (C indicates <1.5 fold) | C (C indicates <0.70 fold) | C (C indicates <1.5 fold) | C (C indicates <0.70 fold) | 
5 | CO[C@H]1C[C@](c2cccc(N3Cc4c(cc(CN5CCC[C@H](C)C5)cc4C(F)(F)F)C3=O)c2)(c2nncn2C)C1 [Compound 37, 2-(3-((1r,3S)-3-methoxy-1-(4-methyl-4H-1,2,4-triazol-3-yl)cyclobutyl)phenyl)-6-(((S)-3-methylpiperidin-1-yl)methyl)-4-(trifluoromethyl)isoindolin-1-one] | < 5 nM | B (B indicates 1.24-1.39 fold) | B (B indicates 20-35 fold) | B (B indicates 20-35 fold) | A (A indicates >2.5 fold) | A (A indicates >1.1 fold) | A (A indicates >2.5 fold) | B (B indicates 0.70-1.1 fold) | 
6 | C[C@H]1CCCN(Cc2cc3c(c(C(F)(F)F)c2)CN(c2cccc([C@]4(c5nncn5C)C[C@H](C#N)C4)c2)C3=O)C1 [Compound 39, (1S,3r)-3-(4-methyl-4H-1,2,4-triazol-3-yl)-3-(3-(6-(((S)-3-methylpiperidin-1-yl)methyl)-1-oxo-4-(trifluoromethyl)isoindolin-2-yl)phenyl)cyclobutane-1-carbonitrile] | < 5 nM | B (B indicates 1.24-1.39 fold) | A (A indicates >35 fold) | A (A indicates >35 fold) | A (A indicates >2.5 fold) | A (A indicates >1.1 fold) | A (A indicates >2.5 fold) | A (A indicates >1.1 fold) | B (B indicates 1.24-1.39 fold)
7 | C[C@@H]1CN(Cc2cc3c(c(C(F)(F)F)c2)CN(c2cccc([C@]4(c5nncn5C)C[C@H](C#N)C4)c2)C3=O)CCC1(F)F [Compound 40, (1R,3r)-3-(3-(6-(((R)-4,4-difluoro-3-methylpiperidin-1-yl)methyl)-1-oxo-4-(trifluoromethyl)isoindolin-2-yl)phenyl)-3-(4-methyl-4H-1,2,4-triazol-3-yl)cyclobutane-1-carbonitrile] | < 5 nM |  | B (B indicates 20-35 fold) | A (A indicates >35 fold) | A (A indicates >2.5 fold) | B (B indicates 0.70-1.1 fold) | A (A indicates >2.5 fold) | B (B indicates 0.70-1.1 fold) | 
8 | C[C@@H]1CN(Cc2cc3c(c(C(F)(F)F)c2)CN(c2cccc(C4(c5nncn5C)CC5(CC5)C4)c2)C3=O)CCC1(F)F [Compound 41, 6-[[(3R)-4,4-difluoro-3-methyl-1-piperidyl]methyl]-2-[3-[5-(4-methyl-1,2,4-triazol-3-yl)spiro[2.3]hexan-5-yl]phenyl]-4-(trifluoromethyl)isoindolin-1-one] | < 5 nM |  | B (B indicates 20-35 fold) | A (A indicates >35 fold) | A (A indicates >2.5 fold) | A (A indicates >1.1 fold) | A (A indicates >2.5 fold) | A (A indicates >1.1 fold) | 
9 | C[C@@H]1CN(Cc2cc3c(c(C(F)(F)F)c2)CN(c2cccc(C4(c5nncn5C)CC5(CC5)C4)c2)C3=O)CCO1 [Compound 43, (R)-2-(3-(5-(4-methyl-4H-1,2,4-triazol-3-yl)spiro[2.3]hexan-5-yl)phenyl)-6-((2-methylmorpholino)methyl)-4-(trifluoromethyl)isoindolin-1-one] | < 5 nM | B (B indicates 1.24-1.39 fold) | B (B indicates 20-35 fold) | A (A indicates >35 fold) | A (A indicates >2.5 fold) | A (A indicates >1.1 fold) | A (A indicates >2.5 fold) | A (A indicates >1.1 fold) | B (B indicates 1.24-1.39 fold)
10 | Cn1cnnc1C1(c2cccc(N3Cc4c(cc(CN5CCC[C@H](C(F)(F)F)C5)cc4C(F)(F)F)C3=O)c2)CC2(CC2)C1 [Compound 44, (S)-2-(3-(5-(4-methyl-4H-1,2,4-triazol-3-yl)spiro[2.3]hexan-5-yl)phenyl)-4-(trifluoromethyl)-6-((3-(trifluoromethyl)piperidin-1-yl)methyl)isoindolin-1-one] | < 5 nM |  | B (B indicates 20-35 fold) | A (A indicates >35 fold) | A (A indicates >2.5 fold) | A (A indicates >1.1 fold) | A (A indicates >2.5 fold) | A (A indicates >1.1 fold) | 
11 | C[C@@H]1CN(C(C)(C)c2cc3c(c(C(F)(F)F)c2)CN(c2cccc(C4(c5nncn5C)CC5(CC5)C4)c2)C3=O)CCO1 [Compound 45, (R)-2-(3-(5-(4-methyl-4H-1,2,4-triazol-3-yl)spiro[2.3]hexan-5-yl)phenyl)-6-(2-(2-methylmorpholino)propan-2-yl)-4-(trifluoromethyl)isoindolin-1-one] | < 5 nM | B (B indicates 1.24-1.39 fold) | B (B indicates 20-35 fold) | B (B indicates 20-35 fold) | A (A indicates >2.5 fold) | A (A indicates >1.1 fold) | A (A indicates >2.5 fold) | A (A indicates >1.1 fold) | 
12 | C[C@H]1CCCN(Cc2cc3c(c(C(F)(F)F)c2)CN(c2cccc(C4(c5nncn5C)COC4)c2)C3=O)C1 [Compound 46, 6-[[(3S)-3-methyl-1-piperidyl]methyl]-2-[3-[3-(4-methyl-1,2,4-triazol-3-yl)oxetan-3-yl]phenyl]-4-(trifluoromethyl)isoindolin-1-one] | < 5 nM | B (B indicates 1.24-1.39 fold) | A (A indicates >35 fold) | A (A indicates >35 fold) | B (B indicates 1.5-2.5 fold) | A (A indicates >1.1 fold) | A (A indicates >2.5 fold) | A (A indicates >1.1 fold) | B (B indicates 1.24-1.39 fold)
